Measurements reported in the NIST ThermoML archive (doi:10.1021/acs.jced.5b00903).

What was measured:
[1] = surface light scattering
[2] = xn = mol fraction of the nth substance listed; settings: surface light scattering

CC(C)CC(C)(C)C [2,2,4-trimethylpentane]
[1]
Settings	surface tension liquid-gas [mN/m]
288.15 K	19.14
298.15 K	18.3
303.15 K	17.9
308.15 K	17.43
313.15 K	17.09
318.15 K	16.56
323.15 K	16.2

CC(C)CC(C)(C)C [2,2,4-trimethylpentane] + CCCCCCCO
[2], x1 = 1
Settings	surface tension liquid-gas [mN/m]
298.15 K	18.3
303.15 K	17.9
308.15 K	17.43
313.15 K	17.09
318.15 K	16.56
323.15 K	16.2

CC(C)CC(C)(C)C [2,2,4-trimethylpentane] + CCCCCCO
[2], x1 = 1
Settings	surface tension liquid-gas [mN/m]
298.15 K	18.3
303.15 K	17.9
308.15 K	17.43
313.15 K	17.09
318.15 K	16.56
323.15 K	16.2

CC(C)CC(C)(C)C [2,2,4-trimethylpentane] + CCCCCO
[2], x1 = 1
Settings	surface tension liquid-gas [mN/m]
298.15 K	18.3
303.15 K	17.9
308.15 K	17.43
313.15 K	17.09
318.15 K	16.56
323.15 K	16.2

CC(C)CC(C)(C)C [2,2,4-trimethylpentane] + CCCO
surface tension liquid-gas [mN/m], [2]
Settings	x1 = 0.1	x1 = 0.2	x1 = 0.3	x1 = 0.4	x1 = 0.4999	x1 = 0.5996	x1 = 0.6998	x1 = 0.7995	x1 = 0.9	x1 = 1
298.15 K	22.09	21.18	20.58	20.05	19.57	19.22	18.96	18.69	18.51	18.3
303.15 K	21.65	20.73	20.12	19.6	19.12	18.77	18.53	18.26	18.09	17.9
308.15 K	21.23	20.28	19.66	19.12	18.64	18.29	18.05	17.78	17.62	17.43
313.15 K	20.77	19.81	19.19	18.66	18.19	17.85	17.63	17.39	17.25	17.09
318.15 K	20.31	19.31	18.67	18.13	17.65	17.31	17.09	16.85	16.72	16.56
323.15 K	19.84	18.82	18.18	17.64	17.17	16.84	16.65	16.43	16.33	16.2

CC(C)CC(C)(C)C [2,2,4-trimethylpentane] + CCO
surface tension liquid-gas [mN/m], [2]
Settings	x1 = 0.0429	x1 = 0.0916	x1 = 0.1474	x1 = 0.2119	x1 = 0.2874	x1 = 0.3769	x1 = 0.4848	x1 = 0.6173	x1 = 0.784	x1 = 1
288.15 K	22.27	21.88	21.47	21.11	20.74	20.4	20.03	19.75	19.5	19.14
298.15 K	21.38	20.96	20.54	20.17	19.8	19.46	19.09	18.83	18.62	18.3
308.15 K	20.54	20.11	19.66	19.28	18.9	18.55	18.17	17.92	17.73	17.43
318.15 K	19.77	19.31	18.85	18.45	18.05	17.7	17.31	17.05	16.86	16.56

CCO [ethanol]
[1]
Settings	surface tension liquid-gas [mN/m]
288.15 K	22.72
293.15 K	22.31
298.15 K	21.85
303.15 K	21.41
308.15 K	21.04
313.15 K	20.62
318.15 K	20.29

CCO [ethanol] + CC(C)CC(C)(C)C
[2], x2 = 0
Settings	surface tension liquid-gas [mN/m]
288.15 K	22.72
298.15 K	21.85
308.15 K	21.04
318.15 K	20.29

CCO [ethanol] + CCCCCCC
[2], x2 = 0
Settings	surface tension liquid-gas [mN/m]
293.15 K	22.31
298.15 K	21.85
303.15 K	21.41
308.15 K	21.04
313.15 K	20.62
318.15 K	20.29

CCCCCCCO [heptan-1-ol]
[1]
Settings	surface tension liquid-gas [mN/m]
298.15 K	26.46
303.15 K	25.93
308.15 K	25.43
313.15 K	24.95
318.15 K	24.55
323.15 K	24.03

CCCCCCCO [heptan-1-ol] + CC(C)CC(C)(C)C
surface tension liquid-gas [mN/m], [2]
Settings	x2 = 0	x2 = 0.1003	x2 = 0.2002	x2 = 0.3002	x2 = 0.3999	x2 = 0.5	x2 = 0.6	x2 = 0.6999	x2 = 0.7999	x2 = 0.8999
298.15 K	26.46	24.78	23.26	22.3	21.46	20.67	20.04	19.59	19.07	18.72
303.15 K	25.93	24.13	22.69	21.74	20.9	20.14	19.53	19.1	18.61	18.29
308.15 K	25.43	23.63	22.12	21.15	20.32	19.55	18.97	18.55	18.08	17.81
313.15 K	24.95	23.15	21.61	20.65	19.83	19.08	18.51	18.13	17.68	17.45
318.15 K	24.55	22.72	21.11	20.14	19.3	18.55	17.97	17.59	17.14	16.92
323.15 K	24.03	22.13	20.53	19.6	18.77	18	17.48	17.12	16.71	16.53
